Data published in patent US3954227A, “Pharmaceutical compositions containing 1-(2',3'-dimethylphenoxy)-3-tert. butylamino-2-propanol or pharmaceutically acceptable salt thereof for treating or preventing coronary disorders” (Teikoku Hormone Mfg. Co., Ltd., priority 1969, dated 1976).
Entries after “also recorded” stand apart in the source; their conditions may differ. Read-outs that look alike come from different tables or passages of the source.

Assays:
[1] = tested on: beta-adrenergic (heart rate increase due to ISOPROTERENOL); test: Beta-adrenergic blocking activity in the case of intravenous injection, rat (antagonism to heart rate increase due to ISOPROTERENOL); format: in vivo, rat (Wistar)
Description: 1. Beta-adrenergic blocking activity in the case of intravenous injection (Antagonism to heart rate increase due to ISOPROTERENOL)
a. Male rats of Wistar strain weighing ca. 300 grams were anesthetized with PENTOBARBITAL-Na (60 mg/kg i.p.), after which they are secured in a supine position. The electrocardiogram was registered in the second lead, on a polygraph. ISOPROTERENOL (0.1 μg/kg) was administered through the left femoral vein at 7-minute intervals.
The heart rate increase for the first two times was averaged and used as control.
The antagonistic chemical was intravenously injected from the third time the ISOPROTERENOL was administered, the administration being performed cumulatively and sequentially in the amounts of respectively 6.25, 25, 100 . . . μg/kg invariably at a point 2 minutes before each administration of ISOPROTERENOL until the effects thereof practically disappeared.

heart rate [2] = test: Heart rate drop at the dosage required for manifestation of beta-adrenergic blocking activity, rat; format: in vivo
heart rate [3] = test: Heart rate drop at the dosage required for manifestation of beta-adrenergic blocking activity, dog; format: in vivo
angina pectoris patients = test: Clinical test: bicycle ergometer exercise test in angina pectoris patients, double blind cross over; format: in vivo, human; design: Change in heart rate b)-a): unit not given here; conditions: for Change in heart rate b)-a) / Exercise time / a) Heart rate before exercise / b) Heart rate after exercise: compound A 5 mg twice daily, PROPRANOLOL 40 mg × 2, third day; for b) Heart rate after exercise: in beats/min (unit assumed)
Description: A test was then conducted on the third day 3 hours after the first administration. […] The test was carried out by the double blind method with a cross over test having a rest period of 10 days. The test method consisted of an exercise test utilizing a bicycle ergometer. After measuring the heart rates of the patients before starting the test, the patients were made to pedal the bicycle ergometer until they were seized with an attack of anginal pain, the effectiveness of the chemicals being judged by the time up to the attack and the heart rate at that time.

heart rate [4] = test: Effect on heart rate (general statements); format: in vivo
mouse [5] = conditions: in vivo, 240 min
Description: (§1) The effects of chemicals on the behavior of mouse was examined by a simplified method of Irwin's multidimensional behavior analysis method.

rat [6] = conditions: in vivo, 240 min
Description: (§2) The chemical to be tested was administered orally, and observations of the behaviors of the rats were carried out for 4 hours after administration of the chemical.
One group consisted of three rats.

rat [7] = conditions: orally
dog [8] = conditions: orally
[9] = in vivo
rat [10] = test: Degree of safety (ratio of side reaction or lethal dosage to effective dosage), rat; conditions: in vivo, po
dog [11] = test: Degree of safety (ratio of side reaction or lethal dosage to effective dosage), dog; conditions: in vivo, po
[12] = oral; cited from earlier work
rat [13] = test: Behavior analysis, rat; conditions: 4 hours observation
Description: as §2
One group consisted of three rats.

mouse [14] = test: Behavior analysis, mouse (simplified Irwin's multidimensional method); conditions: 4 hours observation
Description: as §1

beta-adrenergic = test: Beta-adrenergic blocking activity of metabolites (Table 2); format: in vivo; conditions: for Beta-adrenergic blocking activity compared with PROPRANOLOL, in words: in vivo
heart rate [15] = test: Change in heart rate at the dosage required for manifestation of the beta-adrenergic blocking activity (Table 2); format: in vivo

SMILES: Cc1cccc(OCC(O)CNC(C)(C)C)c1C (stereo not shown) [compound A, 1-(2',3'-dimethylphenoxy)-3-tert. butylamino-2-propanol]
- Relative effectiveness iv (beta-adrenergic blocking activity, PROPRANOLOL = 1.0) [1]: 2
- Heart rate % drop at the dosage required for manifestation of beta-adrenergic blocking activity [ED50] (heart rate [2]; PO): 4%
- Heart rate drop at the dosage required for manifestation of beta-adrenergic blocking activity [ED50] (heart rate [2]; PO): 15 No/min.
- Heart rate % drop at the dosage required for manifestation of beta-adrenergic blocking activity [ED50] (heart rate [2]; iv): 15%
- Heart rate drop at the dosage required for manifestation of beta-adrenergic blocking activity [ED50] (heart rate [2]; iv): 55 No/min.
- Heart rate % drop at the dosage required for manifestation of beta-adrenergic blocking activity [ED50] (heart rate [3]; PO): 2%
- Heart rate drop at the dosage required for manifestation of beta-adrenergic blocking activity [ED50] (heart rate [3]; PO): 3 No/min.
- Heart rate % drop at the dosage required for manifestation of beta-adrenergic blocking activity [ED50] (heart rate [3]; iv): 16%
- Heart rate drop at the dosage required for manifestation of beta-adrenergic blocking activity [ED50] (heart rate [3]; iv): 23 No/min.
- Change in heart rate b)-a) (angina pectoris patients; Case No. 1): 17
- Exercise time (angina pectoris patients; Case No. 1): 187 s
- a) Heart rate before exercise (angina pectoris patients; Case No. 1): 81 beats/min
- b) Heart rate after exercise (angina pectoris patients; Case No. 1): 98
- Change in heart rate b)-a) (angina pectoris patients; Case No. 2): 20
- Exercise time (angina pectoris patients; Case No. 2): 203 s
- a) Heart rate before exercise (angina pectoris patients; Case No. 2): 76 beats/min
- b) Heart rate after exercise (angina pectoris patients; Case No. 2): 96
- Change in heart rate b)-a) (angina pectoris patients; Case No. 3): 19
- Exercise time (angina pectoris patients; Case No. 3): 144 s
- a) Heart rate before exercise (angina pectoris patients; Case No. 3): 84 beats/min
- b) Heart rate after exercise (angina pectoris patients; Case No. 3): 103
- Change in heart rate b)-a) (angina pectoris patients; Mean of 3 cases): 18.7
- Exercise time (angina pectoris patients; Mean of 3 cases): 178.0 s
- a) Heart rate before exercise (angina pectoris patients; Mean of 3 cases): 80.3 beats/min
- b) Heart rate after exercise (angina pectoris patients; Mean of 3 cases): 99.0
- Exercise time up to attack with anginal pains vs placebo, in words (angina pectoris patients; as compared with the placebo): increases the exercise time up to the time the attack with anginal pains takes place
- Increase in the heart rate due to the exercise vs placebo, in words (angina pectoris patients; as compared with the placebo): suppresses the increase in the heart rate due to the exercise
- Suppression of the heart rate vs placebo, in words (angina pectoris patients; as compared with the placebo): practically no suppression of the heart rate
- Effectiveness compared with PROPRANOLOL, in words (angina pectoris patients; human, in vivo): far greater than that of PROPRANOLOL
- Effect on heart rate, in words (heart rate [4]; injection): high decrease in heart rate; also recorded: a drop in heart rate likewise takes place
- Effect on heart rate, in words (heart rate [4]; oral / intestinal absorption route): the normal heart rate is hardly affected at all; also recorded: practically no change in heart rate; also recorded: without hardly any effect on the heart rate
- Dose at which effects appeared from the standpoints of behavior analysis (PO) (mouse [5]): 200 mg
- Dose at which effects appeared from the standpoints of behavior analysis (PO) (rat [6]): 50 mg
- LD50 (rat [7]): 580 mg
- LD50 (dog [8]): 300 mg
- Degree of safety compared with the other similar compounds [9]: 7-20 times
- Degree of safety, times that of PROPRANOLOL (rat [10]): about 14 times
- Degree of safety, times that of PROPRANOLOL (dog [11]): more than 16 times

SMILES: CC(C)NCC(O)COc1cccc2ccccc12 (stereo not shown) [PROPRANOLOL, 1-naphthoxy-3-isopropylamino-2-propanol, reference compound]
- Change in heart rate b)-a) (angina pectoris patients; Case No. 1): 35
- Exercise time (angina pectoris patients; Case No. 1): 134 s
- a) Heart rate before exercise (angina pectoris patients; Case No. 1): 74 beats/min
- b) Heart rate after exercise (angina pectoris patients; Case No. 1): 109
- Change in heart rate b)-a) (angina pectoris patients; Case No. 2): 27
- Exercise time (angina pectoris patients; Case No. 2): 146 s
- a) Heart rate before exercise (angina pectoris patients; Case No. 2): 69 beats/min
- b) Heart rate after exercise (angina pectoris patients; Case No. 2): 96
- Change in heart rate b)-a) (angina pectoris patients; Case No. 3): 27
- Exercise time (angina pectoris patients; Case No. 3): 102 s
- a) Heart rate before exercise (angina pectoris patients; Case No. 3): 75 beats/min
- b) Heart rate after exercise (angina pectoris patients; Case No. 3): 102
- Change in heart rate b)-a) (angina pectoris patients; Mean of 3 cases): 29.7
- Exercise time (angina pectoris patients; Mean of 3 cases): 127.3 s
- a) Heart rate before exercise (angina pectoris patients; Mean of 3 cases): 72.7 beats/min
- b) Heart rate after exercise (angina pectoris patients; Mean of 3 cases): 102.3
- Suppression of the heart rate vs placebo, in words (angina pectoris patients; as compared with the placebo): marked suppression of the heart rate
- Metabolized when orally administered [12]: 90%
- Dose at which effects appeared from the standpoints of behavior analysis (PO) (rat [13]): 25 mg
- Dose at which effects appeared from the standpoints of behavior analysis (PO) (mouse [14]): 100 mg

SMILES: Cc1c(CO)cccc1OCC(O)CNC(C)(C)C (stereo not shown) [compound C]
- Relative beta-adrenergic blocking effectiveness as compared to PROPRANOLOL (beta-adrenergic; i.v.): 4.5
- Beta-adrenergic blocking activity compared with PROPRANOLOL, in words (beta-adrenergic): higher beta-adrenergic blocking activity than PROPRANOLOL
- Relative beta-adrenergic blocking effectiveness as compared to PROPRANOLOL (beta-adrenergic; p.o.): 4.0
- Action of suppressing the heart rate compared with PROPRANOLOL, in words (heart rate [15]; in vivo): lower action of suppressing the heart rate and lesser side reactions
- Change in heart rate by injection, in words (heart rate [15]): small

SMILES: Cc1c(O)ccc(OCC(O)CNC(C)(C)C)c1C (stereo not shown) [compound B]
- Relative beta-adrenergic blocking effectiveness as compared to PROPRANOLOL (beta-adrenergic; i.v.): 5.5
- Beta-adrenergic blocking activity compared with PROPRANOLOL, in words (beta-adrenergic): higher beta-adrenergic blocking activity than PROPRANOLOL
- Relative beta-adrenergic blocking effectiveness as compared to PROPRANOLOL (beta-adrenergic; p.o.): 2.5
- Action of suppressing the heart rate compared with PROPRANOLOL, in words (heart rate [15]; in vivo): lower action of suppressing the heart rate and lesser side reactions
- Change in heart rate at the dosage required for manifestation of the beta-adrenergic blocking activity (heart rate [15]; in vivo): +10 No./min.
- Change in heart rate, % increase, at the dosage required for manifestation of the beta-adrenergic blocking activity (heart rate [15]; increase): 3%
- Change in heart rate by injection, in words (heart rate [15]): small
